Here are results for eight molecules from patent US5656422A, “Compositions and methods for detection of 2,4-dichlorophenoxyacetic acid and related compounds” (Idaho Research Foundation, Inc., priority 1994, dated 1997).

For data set [1], the target named is T1, 2,4-D α-ketoglutarate dioxygenase (Cupriavidus pinatubonensis, UniProt P10088). The arrangement: made in house; host or cells: E. coli DH5α (pYG3), cell-free extract. To be noted: cited from earlier work.
A further data set has as its system E. coli DH5α (pYG3). In words: Induction of enzyme production by IPTG in E. coli DH5α (pYG3). It counts as cell-based. The procedure: Growth and maintenance of E. coli DH5α (pYG3). E. coli DH5α (pYG3), a strain specifically constructed for 2,4-D detection (Example 1), was routinely maintained on LB plates with 75 mg/l of ampicillin and stored at 4° C. Yeast extract was used as a carbon and energy source for E. coli DH5α (pYG3) with 50 mg/l of ampicillin for selective pressure. Batch cultures of E. coli DH5α (pYG3) were carried out in 1000 ml flasks with 400 ml media for the optimization of media and operating condition. The media were directly inoculated by a single colony on a LB plate. The flasks were shaken on a rotary shaker at 200 rpm and incubated at 30° C. or 37° C.
DCP concentration was measured by the 4-aminoantipyrine method (E. Emerson, J. Org. Chem. 1943, 8, 417-419). In place of 2,4-D, phenoxyacetic acid was used for P. aeruginosa PAO1 (pRO103).
Preparation of cell-free extracts. E. coli cultures (10 or 15 ml) were harvested by centrifugation (8,000×g) for 10 minutes, washed using 5 ml of 100 mM sodium phosphate buffer (pH 8.0), then resuspended in 3 ml of phosphate buffer. Cell-free extracts were obtained by passing the cells once through a pre-chilled French press at 1500 psi and clarifying the debris by centrifugation (16,000×g) for 20 minutes at 4° C.
IPTG concentration. IPTG was used as the inducer of the lacZ promoter which regulated the expression of tfdA in pYG3 (Example 1). […]

The target of data set [2] is T1, 2,4-D α-ketoglutarate dioxygenase. Put plainly: Enzyme activity and kinetics of recombinant DDO in cell-free extract (DCP production, 4-aminoantipyrine method).
From the text: (§1) Effect of pH on enzyme activity. Since the color reaction by the 4-aminoantipyrine method is almost instantaneous, the conversion rate of 2,4-D into DCP determines the response time for 2,4-D detection. Higher reaction rates result in smaller response times or less enzyme needed for 2,4-D detection. […] However, the preferred pH for the color reaction is in the range of pH 8.0 to 12.0. […] More importantly, 4-aminoantipyrine reacts with potassium ferricyanide at pH 6.5, producing a slight color change that is similar to having 2 mg/l DCP in solutions. Although pH 6.5 can be used for the enzymatic reaction if the pH of the solution is subsequently adjusted for the color reaction, this is less convenient.
(§2) Effect of Fe^2+ on enzyme activity. […] This saturation concentration should be a function of enzyme concentration used. In order to maximize enzyme activity, a higher ferrous ion concentration, such as 100 μM, should be used for 2,4-D detection.
(§3) Kinetics of enzymatic reaction. […] Since oxygen cannot be controlled in the process of 2,4-D detection, oxygen was not considered in the model. Kinetic data were measured at pH 8.0, 100 mM Fe^2+ and room temperature (20° C.), as shown in the Lineweaver-Burk plots in FIGS. 18A and 18B.
(§4) The values of model parameters were determined from double reciprocal plots.
The test system of another data set is O=C(O)CCC(=O)C(=O)O. Put plainly: cells, lysate or membranes named. To be noted: other: 20° C., pH 8.0, 50 μM Fe^2, cell-free extract.
The next data set deals with O=C(O)COc1ccc(Cl)cc1Cl. Put plainly: cells, lysate or membranes named. The following applies: other: 20° C., pH 8.0, 50 μM Fe^2, cell-free extract.

T1 sequence (P10088 whole entry): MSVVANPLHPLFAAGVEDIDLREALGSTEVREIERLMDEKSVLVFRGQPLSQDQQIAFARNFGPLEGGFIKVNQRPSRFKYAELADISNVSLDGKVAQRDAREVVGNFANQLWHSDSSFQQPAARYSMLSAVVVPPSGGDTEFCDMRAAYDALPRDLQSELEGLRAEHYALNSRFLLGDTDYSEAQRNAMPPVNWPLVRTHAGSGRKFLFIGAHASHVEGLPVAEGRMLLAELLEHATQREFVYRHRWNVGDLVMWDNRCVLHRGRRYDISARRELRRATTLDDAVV
From the text for O=C(O)COc1ccc(Cl)cc1Cl: as §1, §2, §3, §4

In the case of `Cc1cc(Cl)ccc1OCC(=O)O` [MCPA, 4-chloro-2-methyl-phenoxyacetic acid], the “cleavage by DDO” value in data set [1] is “cleaves the side chain”.

In the case of `CC(C)S[C@@H]1O[C@H](CO)[C@H](O)[C@H](O)[C@H]1O` [IPTG, isopropyl β-D-thiogalactopyranoside], the “saturation IPTG concentration for enzyme production” value in the data set on E. coli DH5α (pYG3) (E. coli DH5α (pYG3)) is “approximately 150 mg/l”. In addition, the activation at 150 µg/mL with E. coli DH5α (pYG3) (Escherichia coli, at saturation IPTG concentration, approximately 150 mg/l, read-out: enzyme productivity higher than without IPTG) was ~40%.

For `O=C(O)COc1cc(Cl)c(Cl)cc1Cl` [2,4,5-T, (2,4,5,-trichlorophenoxy)acetic acid], in data set [1], the “cleavage by DDO” value was “does not cleave”.

`[Fe+2]` [ferrous ions]: the “saturation concentration of ferrous ion for enzyme activity” value in data set [2] (cell-free extract) turned out to be 50 µM.

Turning to `Cc1ccccc1OCC(=O)O` [2-methylphenoxyacetic acid], the “cleavage by DDO” value in data set [1] is recorded as “cleaves”.

The term Km denotes the concentration of substrate that gives half-maximal velocity. Take “2,4-D α-ketoglutarate dioxygenase (Cupriavidus pinatubonensis JMP134)”: the figures for the Km in the data set on O=C(O)CCC(=O)C(=O)O and in the data set with O=C(O)COc1ccc(Cl)cc1Cl were 55 µM and 107 µM, respectively.

With `O=C(O)COc1ccccc1` [phenoxyacetic acid], in data set [1], the “cleavage by DDO” value was “cleaves the side chain”.

By Vmax is commonly meant the top rate of the reaction or transport when substrate is in excess. With 2,4-D α-ketoglutarate dioxygenase [DDO], in data set [2] (20° C., pH 8.0, 50 μM Fe^2, cell-free extract of E. coli DH5α (pYG3)), the Vmax came out at 2.0 µmol/min/mg. Besides, in data set [2] (conversion of 2,4-D into DCP), the “optimum pH for the enzymatic reaction” value is listed as 6.5.
